Converted amounts (≈) assume the structure as drawn. Read-outs that look alike come from different tables or passages of the source.
Legend:
[1] = system: Bacillus subtilis ATCC 6633; assay: Antibacterial MIC, microdilution susceptibility test (CLSI); assay type: cell-based; conditions: Bacillus subtilis
From the text: (§1) The synthesized linezolid conjugates (3a–k, 5a–f, 7a–c, 9a–c, 11a–f, 13, and 15) were subjected for antimicrobial properties determination against Gram-positive (Staphylococcus aureus ATCC 6538, Bacillus subtilis ATCC 6633) and Gram-negative (Pseudomonas aeruginosa ATCC 15692, Escherichia coli ATCC 47076) bacteria by the standard technique.
(§2) Antibacterial properties of the synthesized compounds (3a–k, 5a–f, 7a–c, 9a–c, 11a–f, 13 and 15) were screened against Gram-positive (Staphylococcus aureus ATCC 6538, Bacillus subtilis ATCC 6633) and Gram-negative (Pseudomonas aeruginosa ATCC 15,692 and Escherichia coli ATCC 47076) bacteria utilizing the standard technique. Linezolid was used as a standard reference/drug in the current study. The tested bacterial strains were obtained from MERCIN Center, Faculty of Agriculture, Ain Shams University, Cairo, Egypt.
(§3) To determine the antibacterial activity, stock solutions of the tested compounds and standard reference were prepared with up to 100% DMSO and stored at […]. If necessary, the solutions were heated to 40–60 °C before testing to facilitate complete dissolution. Double distilled water was used in all dilutions prepared. […] A microdilution susceptibility test was used for MIC determination (Mueller–Hinton broth in 96-well plates) according to the CLSI (the Clinical and Laboratory Standards Institute, Malvern, PA, USA). The bacterial inoculum was adjusted to approximately 2.5–3 × 10^4 cells/mL in Mueller–Hinton broth and incubated in a ratio of 1:1 with the test derivatives in polystyrene 96-well flat-bottom microplates. Positive growth control (without test derivatives) and negative control (without bacteria) were included. The microplates were placed in an incubator set to 37 °C for 24 h. Absorbance was measured at 620 nm at the end of the incubation period. The cut-off level for follow-up studies was defined as a minimum of 90% inhibition of growth compared to the untreated sample. Experiments were conducted once in triplicate. For selected compounds, minimum inhibitory concentration (MIC) values were determined by dose–response experiments. Experiments were performed at least twice, in triplicate per concentration tested.

[2] = system: Escherichia coli ATCC 47076; assay: as above; assay type: cell-based
From the text: as §1, §2, §3

[3] = system: Pseudomonas aeruginosa ATCC 15692; assay: as above; assay type: cell-based
From the text: as §1, §2, §3

[4] = system: Staphylococcus aureus ATCC 6538; assay: as above; assay type: cell-based; conditions: Staphylococcus aureus
From the text: as §1, §2, §3

[5] = system: Bacillus subtilis ATCC 6633; assay: microbe, parasite or virus in culture; parameters: species or system bacteria; Broth microdilution MIC in Mueller-Hinton broth, absorbance at 620 nm; conditions: ATCC6633, 24 h, read-out: Observed MIC, uM (B. subtilis)
From the text: as §3, with “Antibacterial properties of the synthesized compounds (3a–k, 5a–f, 7a–c, 9a–c, 11a–f, 13 and 15) were screened against Gram-positive (Staphylococcus aureus ATCC 6538, Bacillus subtilis ATCC 6633) and Gram-negative (Pseudomonas aeruginosa ATCC 15,692 and Escherichia coli ATCC 47076) bacteria utilizing the standard technique. Linezolid was used as a standard reference/drug in the current study. The tested bacterial strains were obtained from MERCIN Center, Faculty of Agriculture, Ain Shams University, Cairo, Egypt. To” for “To”

[6] = system: Staphylococcus aureus ATCC 6538; assay: microbe, parasite or virus in culture; parameters: species or system bacteria; Broth microdilution MIC in Mueller-Hinton broth, absorbance at 620 nm; conditions: ATCC6538, 24 h, read-out: Observed MIC, uM (S. aureus)
From the text: as §3, with “Antibacterial properties of the synthesized compounds (3a–k, 5a–f, 7a–c, 9a–c, 11a–f, 13 and 15) were screened against Gram-positive (Staphylococcus aureus ATCC 6538, Bacillus subtilis ATCC 6633) and Gram-negative (Pseudomonas aeruginosa ATCC 15,692 and Escherichia coli ATCC 47076) bacteria utilizing the standard technique. Linezolid was used as a standard reference/drug in the current study. The tested bacterial strains were obtained from MERCIN Center, Faculty of Agriculture, Ain Shams University, Cairo, Egypt. To” for “To”

[7] = ATCC6633, 24 h, Mueller–Hinton broth, 37 °C, 24 h, read-out: MIC, μg/mL ± SE, B. Subtilis (ATCC 6633)
[8] = ATCC47076, Mueller–Hinton broth, 37 °C, 24 h, read-out: MIC, μg/mL ± SE, E. Coli (ATCC 47076)
[9] = ATCC47076, value in parentheses, read-out: MIC (μmol), E. Coli (ATCC 47076) (converted)
[10] = ATCC15692, Mueller–Hinton broth, 37 °C, 24 h, read-out: MIC, μg/mL ± SE, P. Aeruginosa (ATCC 15692)
[11] = ATCC15692, value in parentheses, read-out: MIC (μmol), P. Aeruginosa (ATCC 15692) (converted)
[12] = ATCC6538, 24 h, Mueller–Hinton broth, 37 °C, 24 h, read-out: MIC, μg/mL ± SE, S. Aureus (ATCC 6538)
[13] = ATCC6633, as quoted in running text, read-out: MIC against B. subtilis
[14] = ATCC6538, as quoted in running text, read-out: MIC against S. aureus
[15] = ATCC6538, value in parentheses, read-out: MIC (μmol), S. Aureus (ATCC 6538) (converted)

SMILES	MIC [1, 7]	MIC [2, 8]	MIC [2, 9]	MIC [3, 10]	MIC [3, 11]	MIC [4, 12]	melting point	MIC [5]	MIC [6]	MIC [1, 13]	MIC [4, 14]	MIC ([1]; ATCC6633, value in parentheses, read-out: MIC (μmol), B. Subtilis (ATCC 6633) (converted))	MIC [4, 15]	MIC ([3]; ATCC15692, read-out: MIC against P. aeruginosa)
O=C(N[C@@H](Cc1ccccc1)C(=O)NC[C@H]1CN(c2ccc(N3CCOCC3)c(F)c2)C(=O)O1)OCc1ccccc1 [Compound 3e, Benzyl ((S)-1-((((S)-3-(3-fluoro-4-morpholinophenyl)-2-oxooxazolidin-5-yl)methyl)amino)-1-oxo-3-phenylpropan-2-yl)carbamate]	32 ± 1.9 µg/mL	32 ± 1 µg/mL	55.5 µM	64 ± 2.1 µg/mL	111 µM	32 ± 2.2 µg/mL	120 to 122 °C	55.5 µM (≈ 32 µg/mL)	55.5 µM (≈ 32 µg/mL)	–	–	–	–	–
CC(C)(C)OC(=O)NCC(=O)NC[C@H]1CN(c2ccc(N3CCOCC3)c(F)c2)C(=O)O1 [Compound 3f, Tert-butyl (S)-(2-(((3-(3-fluoro-4-morpholinophenyl)-2-oxooxazolidin-5-yl)methyl)amino)-2-oxoethyl)carbamate]	8 ± 0.4 µg/mL	32 ± 2.8 µg/mL	70.7 µM	32 ± 1.6 µg/mL	70.7 µM	32 ± 1.4 µg/mL	54 to 56 °C	17.7 µM (≈ 8 µg/mL)	70.7 µM (≈ 32 µg/mL)	–	–	–	–	–
C[C@H](NC(=O)OC(C)(C)C)C(=O)NC[C@H]1CN(c2ccc(N3CCOCC3)c(F)c2)C(=O)O1 [Compound 3g, Tert-butyl ((S)-1-((((S)-3-(3-fluoro-4-morpholinophenyl)-2-oxooxazolidin-5-yl)methyl)amino)-1-oxopropan-2-yl)carbamate]	32 ± 2.4 µg/mL	32 ± 2.7 µg/mL	68.6 µM	32 ± 1.2 µg/mL	68.6 µM	32 ± 1.5 µg/mL	71 to 72 °C	68.6 µM (≈ 32 µg/mL)	68.6 µM (≈ 32 µg/mL)	–	–	–	–	–
CC(C)(C)OC(=O)N[C@@H](Cc1ccccc1)C(=O)NC[C@H]1CN(c2ccc(N3CCOCC3)c(F)c2)C(=O)O1 [Compound 3j, Tert-butyl ((S)-1-((((S)-3-(3-fluoro-4-morpholinophenyl)-2-oxooxazolidin-5-yl)methyl)amino)-1-oxo-3-phenylpropan-2-yl)carbamate]	32 ± 1.3 µg/mL	32 ± 0.9 µg/mL	59 µM	64 ± 1.8 µg/mL	118 µM	64 ± 2.5 µg/mL	69 to 71 °C	59 µM (≈ 32 µg/mL)	118 µM (≈ 64 µg/mL)	–	–	–	–	–
O=C(NC[C@H]1CN(c2ccc(N3CCOCC3)c(F)c2)C(=O)O1)c1ccccc1 [Compound 5a, (S)-N-((3-(3-Fluoro-4-morpholinophenyl)-2-oxooxazolidin-5-yl)methyl)benzamide]	1 ± 0.1 µg/mL	32 ± 1.6 µg/mL	80.1 µM	32 ± 0.8 µg/mL	80.1 µM	4 ± 0.2 µg/mL	174 to 176 °C	2.5 µM (≈ 1 µg/mL)	10 µM (≈ 4 µg/mL)	2.33 to 2.5 µM	9.34 to 10 µM	–	–	–
CNc1ccc(C(=O)NC[C@H]2CN(c3ccc(N4CCOCC4)c(F)c3)C(=O)O2)cc1 [Compound 5e, (S)-N-((3-(3-Fluoro-4-morpholinophenyl)-2-oxooxazolidin-5-yl)methyl)-4-(methylamino) benzamide]	1 ± 0.1 µg/mL	32 ± 1.6 µg/mL	74.7 µM	32 ± 2.2 µg/mL	74.7 µM	4 ± 0.2 µg/mL	195 to 197 °C	–	–	2.33 to 2.5 µM	9.34 to 10 µM	2.33 µM	9.34 µM	–
O=C(NC[C@H]1CN(c2ccc(N3CCOCC3)c(F)c2)C(=O)O1)c1ccncc1 [Compound 7a, (S)-N-((3-(3-Fluoro-4-morpholinophenyl)-2-oxooxazolidin-5-yl)methyl)isonicotin-amide]	2 ± 0.2 µg/mL	32 ± 0.9 µg/mL	79.9 µM	8 ± 0.1 µg/mL	20 µM	8 ± 0.3 µg/mL	198 to 200 °C	5 µM (≈ 2 µg/mL)	–	–	–	–	20 µM	20 µM
CS(=O)(=O)c1ccc(CNC[C@H]2CN(c3ccc(N4CCOCC4)c(F)c3)C(=O)O2)cc1 [Compound 11b, (S)-3-(3-Fluoro-4-morpholinophenyl)-5-[{(4-(methylsulfonyl)benzyl}amino]methyl) oxazolidin-2-one]	32 ± 1.4 µg/mL	32 ± 1.1 µg/mL	69 µM	64 ± 2.8 µg/mL	138 µM	32 ± 1.2 µg/mL	–	69 µM (≈ 32 µg/mL)	69 µM (≈ 32 µg/mL)	–	–	–	–	–
O=C1O[C@@H](CNCc2ccc(C(F)(F)F)cc2)CN1c1ccc(N2CCOCC2)c(F)c1 [Compound 11c, (S)-3-(3-Fluoro-4-morpholinophenyl)-5-[{(4-(trifluoromethyl)benzyl}amino]methyl) oxazolidin-2-one]	16 ± 0.4 µg/mL	32 ± 0.9 µg/mL	70.6 µM	64 ± 1.5 µg/mL	141 µM	32 ± 0.8 µg/mL	–	35.3 µM (≈ 16 µg/mL)	70.6 µM (≈ 32 µg/mL)	–	–	–	–	–
O=C1O[C@@H](CNCc2cccc(Cl)c2)CN1c1ccc(N2CCOCC2)c(F)c1 [Compound 11d, (S)-5-[{(3-Chlorobenzyl)amino}methyl]-3-(3-fluoro-4-morpholinophenyl) oxazolidin-2-one]	32 ± 1.2 µg/mL	32 ± 2.1 µg/mL	76.2 µM	32 ± 1.7 µg/mL	76.2 µM	32 ± 1 µg/mL	–	76.2 µM (≈ 32 µg/mL)	76.2 µM (≈ 32 µg/mL)	–	–	–	–	–
COc1cc(CNC[C@H]2CN(c3ccc(N4CCOCC4)c(F)c3)C(=O)O2)cc(OC)c1 [Compound 11f, (S)-5-[{(3,5-Dimethoxybenzyl)amino}methyl]-3-(3-fluoro-4-morpholinophenyl) oxazo-lidine-2-one]	32 ± 0.3 µg/mL	32 ± 0.8 µg/mL	71.8 µM	32 ± 1.9 µg/mL	71.8 µM	32 ± 1.7 µg/mL	–	71.8 µM (≈ 32 µg/mL)	71.8 µM (≈ 32 µg/mL)	–	–	–	–	–
O=C1O[C@@H](CNCCCO[N+](=O)[O-])CN1c1ccc(N2CCOCC2)c(F)c1 [Compound 13, (S)-3-[{(3-(3-Fluoro-4-morpholinophenyl)-2-oxooxazolidin-5-yl)methyl}amino] propyl nitrate]	32 ± 0.9 µg/mL	32 ± 0.6 µg/mL	80.3 µM	32 ± 1.5 µg/mL	80.3 µM	32 ± 1 µg/mL	–	80.3 µM	80.3 µM	–	–	–	–	–
